Experimental data reported in ChEMBL document CHEMBL1130791, “Novel HIV-protease inhibitors containing beta-hydroxyether and -thioether dipeptide isostere surrogates: modification of the P3 ligand” (Bioorg Med Chem Lett, 1998).
Activity calls are given as the source filed them. The calls are words filed in the database; no cut-off is given here.

How the values were obtained:
[1] = target: T1, Human immunodeficiency virus type 1 protease (Human immunodeficiency virus 1, UniProt Q72874); assay: Inhibitory activity against HIV-1 protease using scintillation proximity assay (SPA assay)
[2] = target: Human immunodeficiency virus type 1 protease (Human immunodeficiency virus 1) (UniProt Q72874); assay: Antiviral activity against the HTLV-III strain of HIV-1 in CEM cell lines; format: functional, cell-based; conditions: CCRF-CEM
CCRF-CEM = assay: Compound was evaluated for antiviral activity against the HTLV-III strain of HIV-1 in CEM cell lines; NA means not active; format: functional, cell-based; conditions: Homo sapiens
[3] = target: T1, Human immunodeficiency virus type 1 protease; assay: Inhibitory activity against HIV-1 protease using scintillation proximity assay (SPA assay); NA means not active
[4] = target: Human immunodeficiency virus type 1 protease (Human immunodeficiency virus 1) (UniProt Q72874); assay: Inhibitory activity against HIV-1 protease using scintillation proximity assay (SPA assay) at a concentration of 500 nM

SMILES | IC50 [1] [nM] | ID50 [2] [nM] | also measured
CC(C)(C)NC(=O)c1c(OC[C@@H](O)[C@H](Cc2ccccc2)NC(=O)[C@H](CC(N)=O)NC(=O)c2ccc3c(c2)S(=O)(=O)c2ccccc2C3=O)ccc2ccccc12 | 60 | 100 | 
CC(C)(C)NC(=O)c1ccccc1OC[C@@H](O)[C@H](Cc1ccccc1)NC(=O)[C@H](CC(N)=O)NC(=O)c1cnnc2ccccc12 | 130 | 9300 | 
CC(C)(C)NC(=O)c1ccccc1OC[C@@H](O)[C@H](Cc1ccccc1)NC(=O)[C@H](CC(N)=O)NC(=O)c1cnc2ccccc2n1 | 63 | 630 | 
CC(C)(C)NC(=O)c1ccccc1OC[C@H](O)[C@H](Cc1ccccc1)NC(=O)[C@H](CC(N)=O)NC(=O)c1cc(O)c2ccccc2n1 | 410 | 11200 | 
CC(C)(C)NC(=O)c1ccccc1OC[C@H](O)[C@H](Cc1ccccc1)NC(=O)[C@H](CC(N)=O)NS(=O)(=O)c1ccc2ccccc2c1 |  |  | ID50 (CCRF-CEM): inactive
CC(C)(C)NC(=O)c1ccccc1OC[C@@H](O)[C@H](Cc1ccccc1)NC(=O)[C@H](CC(N)=O)NC(=O)c1ccc2c(c1)C(=O)c1ccccc1C2=O | 41 | 330 | 
CC(C)(C)NC(=O)c1ccccc1SC[C@H](O)[C@H](Cc1ccccc1)NC(=O)[C@H](CC(N)=O)NC(=O)c1ccccn1 |  |  | IC50 [3]: Not Active
CC(C)(C)NC(=O)c1c(OC[C@@H](O)[C@H](Cc2ccccc2)NC(=O)[C@H](CC(N)=O)NC(=O)c2ccc3c(c2)C(=O)c2ccccc2C3=O)ccc2ccccc12 | 62 | 160 | 
CC(C)(C)NC(=O)c1ccccc1OC[C@@H](O)[C@H](Cc1ccccc1)NC(=O)[C@H](CC(N)=O)NC(=O)c1ccc2ccccc2n1 | 45 |  | 
CC(C)(C)NC(=O)c1ccccc1OC[C@H](O)[C@H](Cc1ccccc1)NC(=O)[C@H](CC(N)=O)NC(=O)c1nc2ccccc2nc1O |  | 10600 | inhibition [4]: 35%
CC(C)(C)NC(=O)c1ccccc1OC[C@H](O)[C@H](Cc1ccccc1)NC(=O)[C@H](CC(N)=O)NC(=O)c1cnnc2ccccc12 | 500 | 13400 | 
CC(C)(C)NC(=O)c1ccccc1OC[C@H](O)[C@H](Cc1ccccc1)NC(=O)[C@H](CC(N)=O)NC(=O)c1cnc2ccccc2n1 | 100 | 610 | 
CC(C)(C)NC(=O)c1ccccc1SC[C@H](O)[C@H](Cc1ccccc1)NC(=O)[C@H](CC(N)=O)NC(=O)c1ccc2ccccc2c1 | 390 | 13400 | 
CC(C)(C)NC(=O)c1ccccc1OC[C@H](O)[C@H](Cc1ccccc1)NC(=O)[C@H](CC(N)=O)NC(=O)c1ccc2c(c1)C(=O)c1ccccc1C2=O | 90 | 2300 | 
CC(C)(C)NC(=O)c1ccccc1OC[C@@H](O)[C@H](Cc1ccccc1)NC(=O)[C@H](CC(N)=O)NS(=O)(=O)c1ccc2ccccc2c1 |  |  | inhibition [4]: 42%; ID50 (CCRF-CEM): inactive
CC(C)(C)NC(=O)c1ccccc1SC[C@@H](O)[C@H](Cc1ccccc1)NC(=O)[C@H](CC(N)=O)NC(=O)c1ccc2ccccc2n1 | 90 |  | 
CC(C)(C)NC(=O)c1ccccc1OC[C@@H](O)[C@H](Cc1ccccc1)NC(=O)[C@H](CC(N)=O)NC(=O)c1nc2ccccc2nc1O |  |  | inhibition [4]: 36%; ID50 (CCRF-CEM): inactive
CC(C)(C)NC(=O)c1ccccc1OC[C@@H](O)[C@H](Cc1ccccc1)NC(=O)[C@H](CC(N)=O)NC(=O)c1ccc2c(c1)S(=O)(=O)c1ccccc1C2=O | 44 | 550 | 
CC(C)(C)NC(=O)c1ccccc1NC[C@@H](O)[C@H](Cc1ccccc1)NC(=O)[C@H](CC(N)=O)NC(=O)c1ccc2ccccc2n1 | 94 |  | 
